This assay deals with ROCK2 (Homo sapiens (Human), UniProt O75116). Kind of assay: ROCK assay (LABCHIP 3000 peptide phosphorylation assay). It counts as biochemical. The settings on record: 5 μM ATP, 1.5 μM peptide substrate, dose-response. In short, it runs like this: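 Rho kinase variants in 20 mM HEPES pH 7.5, 20 mM MgCl2, 0.015% Brij-35, 4 mM DTT, 5 μM ATP, 1.5 μM FITC-AHA-AKRRRLSSLRA-OH peptide; DMSO <2%. EDTA-stopped; phosphorylated/non-phosphorylated peptide separated by microfluidic LabChip readout. Dose-response inhibition curve-fitted to give IC50.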
Sequence of ROCK2 (O75116 whole entry, species assumed): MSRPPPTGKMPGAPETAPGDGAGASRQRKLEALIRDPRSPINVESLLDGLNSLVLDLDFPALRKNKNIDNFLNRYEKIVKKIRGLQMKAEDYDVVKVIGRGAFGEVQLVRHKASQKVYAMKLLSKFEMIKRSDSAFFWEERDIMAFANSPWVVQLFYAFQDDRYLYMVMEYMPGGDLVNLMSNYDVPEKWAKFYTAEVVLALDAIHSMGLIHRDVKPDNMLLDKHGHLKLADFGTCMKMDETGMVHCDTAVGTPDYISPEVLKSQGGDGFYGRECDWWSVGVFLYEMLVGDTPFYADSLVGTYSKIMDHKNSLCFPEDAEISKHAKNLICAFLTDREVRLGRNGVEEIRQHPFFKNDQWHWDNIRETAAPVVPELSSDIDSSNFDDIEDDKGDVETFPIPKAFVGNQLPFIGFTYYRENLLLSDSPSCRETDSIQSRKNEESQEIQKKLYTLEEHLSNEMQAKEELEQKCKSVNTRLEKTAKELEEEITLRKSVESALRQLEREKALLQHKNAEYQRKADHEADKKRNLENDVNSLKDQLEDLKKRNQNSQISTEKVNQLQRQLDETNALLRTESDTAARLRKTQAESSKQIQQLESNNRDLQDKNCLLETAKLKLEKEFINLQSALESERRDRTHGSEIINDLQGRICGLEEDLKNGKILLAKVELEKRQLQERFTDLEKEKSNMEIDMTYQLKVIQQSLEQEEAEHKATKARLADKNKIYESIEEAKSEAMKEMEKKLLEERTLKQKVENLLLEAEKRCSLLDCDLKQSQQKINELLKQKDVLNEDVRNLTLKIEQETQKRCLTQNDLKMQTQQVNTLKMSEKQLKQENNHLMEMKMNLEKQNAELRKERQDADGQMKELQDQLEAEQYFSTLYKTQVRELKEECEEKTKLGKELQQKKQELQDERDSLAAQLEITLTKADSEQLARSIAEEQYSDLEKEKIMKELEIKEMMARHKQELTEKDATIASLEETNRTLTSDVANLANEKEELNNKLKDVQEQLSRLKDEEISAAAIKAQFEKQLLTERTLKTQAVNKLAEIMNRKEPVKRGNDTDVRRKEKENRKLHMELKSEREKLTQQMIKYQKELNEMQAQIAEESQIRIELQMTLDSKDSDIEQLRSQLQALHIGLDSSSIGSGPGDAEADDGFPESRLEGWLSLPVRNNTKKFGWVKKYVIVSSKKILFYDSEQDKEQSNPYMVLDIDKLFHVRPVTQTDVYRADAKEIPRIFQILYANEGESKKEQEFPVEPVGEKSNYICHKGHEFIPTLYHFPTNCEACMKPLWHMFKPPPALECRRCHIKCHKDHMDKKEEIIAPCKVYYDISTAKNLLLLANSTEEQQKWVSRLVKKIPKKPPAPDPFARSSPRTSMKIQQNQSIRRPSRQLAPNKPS

A word on the IC50: it is the point on the concentration scale where inhibition reaches its midpoint. Take `Cc1sc(NC(=O)Cc2ccc(Oc3ncccc3C(N)=O)c(F)c2)nc1-c1ccc(S(C)(=O)=O)cc1` [Example 047, 2-(2-fluoro-4-(2-((5-methyl-4-(4-(methylsulfonyl)phenyl)thiazol-2-yl)amino)-2-oxoethyl)phenoxy)nico-tinamide]: 0.084 µM corresponded to half-maximal inhibition (IC50).
In the case of `NC(=O)c1cccnc1Oc1ccc(CC(=O)Nc2nc3cc(F)ccc3n2CC2CC2)cc1F` [Example 165] it was 0.026 µM.
To `NC(=O)c1cccnc1Oc1ccc(CC(=O)Nc2nc3ccc(OC(F)F)nc3s2)cc1Cl` [Example 121, 2-(2-chloro-4-(2-((5-(difluoro-methoxy)thiazolo-[5,4-b]pyridin-2-yl)amino)-2-oxoethyl)phenoxy)-nicotinamide] belongs 0.045 µM.
To `NC(=O)c1cccnc1Oc1ccc(CC(=O)Nc2nc3ccc(OCc4ccccc4)cc3n2CC2CC2)cc1F` [Example 170, 2-(4-(2-((6-(benzyloxy)-1-(cyclo-propylmethyl)-1H-benzo[d]-imidazol-2-yl)-amino)-2-oxo-ethyl)-2-fluoro-phenoxy)nicotin-amide] belongs 0.031 µM; to `Cc1sc(NC(=O)Cc2ccc(Oc3ncccc3C(N)=O)cc2)nc1-c1ccccc1` [Example 016, 2-(4-(2-((5-methyl-4-phenylthiazol-2-yl)amino)-2-oxoethyl)phenoxy) nicotinamide], 0.087 µM.
Compound `Cn1cc(-c2ccc3nc(NC(=O)Cc4ccc(Oc5ncccc5C(N)=O)c(F)c4)n(CC4CC4)c3c2)cn1` [Example 144, 2-(4-(2-((1-(cyclopropylmethyl)-6-(1-methyl-1H-pyrazol-4-yl)-1H-benzo[d]imidazol-2-yl)amino)-2-oxoethyl)-2-fluorophenoxy)nicotinamide] gave an IC50 of 0.005 µM.
`Cc1cccc(Nc2ncnc3ccc(NC(=O)Cc4ccc(Oc5ncccc5C(N)=O)cc4)cc23)c1` [Example 077, 2-(4-(2-oxo-2-((4-(m-tolylamino)quinaz-olin-6-yl)amino)ethyl)phe-noxy)nicotinamide] displayed an IC50 of 0.042 µM.
In the case of `CC(C)(O)COc1ccc2sc(NC(=O)Cc3ccc(Oc4ncccc4C(N)=O)c(Cl)c3)nc2c1` [Example 112, 2-(2-chloro-4-(2-((5-(2-hydroxy-2-methylpropoxy)benzo[d]thiazol-2-yl)amino)-2-oxoethyl)phenoxy)nicotinamide] it was 0.006 µM.
In the case of `Cn1ccc(-c2ccc3sc(NC(=O)Cc4ccc(Oc5ncccc5C(N)=O)c(F)c4)nc3c2)cc1=O` [Example 025, 2-(2-fluoro-4-(2-((5-(1-methyl-2-oxo-1,2-dihydropyridin-4-yl)benzo[d]thiazol-2-yl)amino)-2-oxoethyl)phenoxy)nico-tinamide] it was 0.023 µM.
In the case of `NC(=O)c1cccnc1Oc1ccc(CC(=O)Nc2nc3ccc(OC(F)(F)F)cn3n2)cc1F` [Example 140, 2-(2-fluoro-4-(2-oxo-2-((6-(trifluoromethoxy)-[1,2,4]triazolo[1,5-a]pyridin-2-yl)amino)ethyl)phenoxy)nicotinamide] it was 0.093 µM; in that of `Cn1nc(NC(=O)Cc2ccc(Oc3ncccc3C(N)=O)cc2)c2ccccc21` [Example 075, 2-(4-(2-((1-methyl-1H-indazol-3-yl)amino)-2-oxoethyl)phenoxy) nicotinamide], 0.534 µM.
As for `COc1ncc(-c2nc(NC(=O)Cc3ccc(Oc4ncccc4C(N)=O)c(F)c3)sc2C)cn1` [Example 040, 2-(2-fluoro-4-(2-((4-(2-methoxypyrimidin-5-yl)-5-methylthiazol-2-yl)amino)-2-oxoethyl)phenoxy)nico-tinamide], half-maximal inhibition (IC50) was put at 0.099 µM.
In the case of `NC(=O)c1cccnc1Oc1ccc(CC(=O)Nc2nc3ccccc3s2)cc1` [Example 049, 2-(4-(2-(benzo[d]thiazol-2-ylamino)-2-oxoethyl)phenoxy) nicotinamide] it was 0.194 µM.
In the case of `COCCn1c(NC(=O)Cc2ccc(Oc3ncccc3C(N)=O)c(F)c2)nc2cc(C(N)=O)ccc21` [Example 156, 2-(2-(4-((3-carbamoyl-pyridin-2-yl)oxy)-3-fluorophenyl)-acetamido)-1-(2-methoxyethyl)-1H-benzo[d]-imidazole-5-carboxamide] it was 3.46 µM; in that of `CP(C)(=O)c1cccc2nc(NC(=O)Cc3ccc(Oc4ncccc4C(N)=O)c(F)c3)nn12` [Example 147], 1.39 µM.
To `Cn1nc(NC(=O)Cc2ccc(Oc3ncccc3C(N)=O)c(Cl)c2)c2cccnc21` [Example 010, 2-(2-chloro-4-(2-((1-methyl-1H-pyrazolo[3,4-b]pyridin-3-yl)amino)-2-oxoethyl)phenoxy)nicotinamide] belongs 0.159 µM; to `NC(=O)c1cccnc1Oc1ccc(CC(=O)Nc2nc3c(C(F)(F)F)cccn3n2)cc1F` [Example 141, 2-(2-fluoro-4-(2-oxo-2-((8-(trifluoromethyl)-[1,2,4]triazolo[1,5-a]pyridin-2-yl)amino)ethyl)phenoxy)nicotinamide], 0.034 µM; to `CC(C)(O)COc1ccc2sc(NC(=O)Cc3ccc(Oc4ncccc4C(N)=O)c(F)c3)nc2c1` [Example 003, 2-(2-fluoro-4-(2-((5-(2-hydroxy-2-methylpropoxy)benzo[d]thiazol-2-yl)amino)-2-oxoethyl)phenoxy)nicotinamide], 0.02 µM.
Regarding `Cc1nc(NC(=O)Cc2ccc(Oc3ncccc3C(N)=O)c(F)c2)sc1C` [Example 098, 2-(4-(2-((4,5-dimethylthiazol-2-yl)amino)-2-oxoethyl)-2-fluorophenoxy)nico-tinamide], inhibition was half-maximal at 0.031 µM (IC50).
In the case of `NC(=O)c1cccnc1Oc1ccc(CC(=O)Nc2nc3cc(C(F)(F)F)ccc3n2CC2CC2)cc1Cl` [Example 177, 2-(2-chloro-4-(2-((1-(cyclo-propylmethyl)-5-(trifluoro-methyl)-1H-benzo[d]-imidazol-2-yl)-amino)-2-oxo-ethyl)phenoxy)-nicotinamide] it was 0.007 µM; in that of `COc1ccc2c(c1)CCc1sc(NC(=O)C(C)c3ccc(Oc4ncccc4C(N)=O)cc3)nc1-2` (stereo not shown) [Example 106, 2-(4-(1-((7-methoxy-4,5-dihydronaphtho[1,2-d]thiazol-2-yl)amino)-1-oxopropan-2-yl)phenoxy)nicotinamide], 0.262 µM.
To `COc1ccc2sc(NC(=O)Cc3ccc(Oc4ncccc4C(N)=O)cc3)nc2c1` [Example 002, 2-(4-(2-((5-methoxybenzo[d]thiazol-2-yl)amino)-2-oxoethyl)phenoxy) Nicotinamide] belongs 0.035 µM.
In the case of `NC(=O)c1cccnc1Oc1ccc(CC(=O)Nc2nnc(-c3cnccn3)s2)cc1F` [Example 011, 2-(2-fluoro-4-(2-oxo-2-((5-(pyrazin-2-yl)-1,3,4-thiadiazol-2yl)amino)ethyl)phe-noxy) nicotinamide] it was 0.15 µM.
Regarding `NC(=O)c1cccnc1Oc1ccc(CC(=O)Nc2ccn(-c3ccc(C(F)(F)F)cn3)n2)cc1F` [Example 100, 2-(2-fluoro-4-(2-oxo-2-((1-(5-(trifluoromethyl)pyridin-2-yl)-1H-pyrazol-3-yl)amino)ethyl)phe-noxy)nicotinamide], the IC50 amounted to 0.191 µM.
In the case of `COc1ccc2nc(NC(=O)Cc3ccc(Oc4ncccc4C(N)=O)cc3)sc2c1` [Example 067, 2-(4-(2-((6-methoxybenzo[d]thiazol-2-yl)amino)-2-oxoethyl)phenoxy) nicotinamide] it was 0.089 µM; in that of `NC(=O)c1cccnc1Oc1ccc(CC(=O)Nc2nc3cc(-c4cc[nH]c(=O)c4)ccc3s2)cc1F` [Example 024, 2-(2-fluoro-4-(2-oxo-2-((5-(2-oxo-1,2-dihydropyridin-4-yl)benzo[d]thiazol-2-yl)amino)ethyl)phe-noxy)nicotinamide], 0.008 µM.
In the case of `Cc1sc(NC(=O)Cc2ccc(Oc3ncccc3C(N)=O)c(F)c2)nc1-c1ccc(F)cn1` [Example 014, 2-(2-fluoro-4-(2-((4-(5-fluoropyridin-2-yl)-5-methylthiazol-2-yl)amino)-2-oxoethyl)phenoxy)nic-otinamide] it was 0.096 µM; in that of `NC(=O)c1cccnc1Oc1ccc(CC(=O)Nc2nc3c(F)cccc3n2CC2CC2)cc1F` [Example 161, 2-(4-(2-((1-(cyclopropyl-methyl)-4-fluoro-1H-benzo[d]-imidazol-2-yl)-amino)-2-oxoethyl)-2-fluorophenoxy)-nicotinamide], 0.016 µM.
Regarding `CP(C)(=O)c1ccc2nc(NC(=O)Cc3ccc(Oc4ncccc4C(N)=O)c(F)c3)n(CC(F)F)c2c1` [Example 150, 2-(4-(2-((1-(2,2-difluoroethyl)-6-(dimethylphosphoryl)-1H-benzo[d]imidazol-2-yl)amino)-2-oxo-ethyl)-2-fluoro-phenoxy)nicotinamide], the midpoint of inhibition, the IC50, lay at 0.465 µM.
To `NC(=O)c1cccnc1Oc1ccc(CC(=O)Nc2nc3ccccc3o2)cc1` [Example 054, 2-(4-(2-(benzo[d]oxazol-2-ylamino)-2-oxoethyl)phenoxy) nicotinamide] belongs 0.364 µM; to `Cc1sc(NC(=O)Cc2ccc(Oc3ncccc3C(N)=O)c(Cl)c2)nc1-c1cnn(C)c1` [Example 104, 2-(2-chloro-4-(2-((5-methyl-4-(1-methyl-1H-pyrazol-4-yl)thiazol-2-yl)amino)-2-oxoethyl)phenoxy) nicotinamide], 0.007 µM.
In the case of `NC(=O)c1cccnc1Oc1ccc(CC(=O)Nc2nc3cc(-c4cn[nH]c4)ccc3s2)cc1F` [Example 031, 2-(4-(2-((5-(1H-pyrazol-4-yl)benzo[d]thiazol-2-yl)amino)-2-oxoethyl)-2-fluorophenoxy)nicotin-amide] it was 0.008 µM.
To `NC(=O)c1cccnc1Oc1ccc(CC(=O)Nc2nc3ccc(F)cc3n2CC(F)F)cc1F` [Example 166, 2-(4-(2-((1-(2,2-difluoroethyl)-6-fluoro-1H-benzo[d]-imidazol-2-yl)-amino)-2-oxo-ethyl)-2-fluoro-phenoxy)nicotin-amide] belongs 0.024 µM; to `NC(=O)c1cccnc1Oc1ccc(CC(=O)Nc2nc3cccc(Cl)c3[nH]2)cc1` [Example 073, 2-(4-(2-((7-chloro-1H-benzo[d]imidazol-2-yl)amino)-2-oxoethyl)phenoxy) nicotinamide], 0.244 µM.
